From patent US10058524B2, “Methods for improving joint function” (Tersus Life Sciences, LLC, priority 2015, dated 2018)

Columns and labels:
Format in all cases: in vivo
[1] = test system: Human Subjects; test: Stepmill Protocol: time of onset and offset of knee discomfort
Experimental: The study duration was thirty-seven (37) days with a total of 4 visits per subject. The initial screening visit (Visit 1) occurred 7 days prior to the initiation of the study (Day −7). Subjects arrived in the clinic having fasted for 10 hours in preparation for Visit 1. Subjects underwent the informed consent process and were screened for the presence of all the inclusion criteria and the absence of all the exclusion criteria. The screening process also included taking a detailed medical history, recording prior and concomitant medications, performing a physical examination, and documenting vital signs, and anthropometric measures. To determine eligibility, subjects continuously used the Stepmill at a set rate for 10 minutes until they complained of knee discomfort (in at least one knee) that scored at least 5 on an 11 point numeric pain rating scale. The time of onset of joint pain was recorded. Subjects were also instructed to inform the clinician when their discomfort began to subside and when their discomfort completely resolved.
Baseline assessments included evaluating the pain or discomfort experienced by subjects during exercise testing. Subjects were instructed to exercise on a StepMill® model 7000PT (StairMaster® Health & Fitness Products, Inc., Kirkland, Wash.) at a set rate (Level 4) for 10 minutes. The following knee discomfort measures were recorded from the beginning of the Stepmill test: (1) time of onset of initial joint pain; (2) time of onset of maximum joint pain; (3) time at which initial improvement in knee joint pain was achieved; and (4) time of complete recovery from knee joint pain. Subjects that reported a discomfort level of 5 on an 11 point (0-10) Likert scale in at least one knee within the 10-minute period were selected. Once the requisite pain level was achieved, the subject was asked to continue stepping for an additional two minutes in order to record the maximum pain level reached before disembarking from the stepmill. Subjects who experienced a pain score of 5 (or greater) within one minute of starting the stress test were excluded.
(§1) Subjects who met all of the study inclusion criteria and none of the exclusion criteria were randomly assigned to either the C16:1n7-palmitoleate-treatment or placebo groups. The C16:1n7-palmitoleate composition included palmitoleic acid, gelatin, glycerin and purified water whereas the placebo included medium chain triglycerides. […] The subjects and the clinical staff were unaware of what group a particular subject was allocated to. Baseline assessments for joint pain and knee range of motion in a subject were obtained via the 6-Minute Timed Walk, Stepmill Protocol, and goniometry. At the end of the visit, subjects were provided with a 7-day supply of the C16:1n7-palmitoleate composition or placebo and daily dosing diaries. Subjects were instructed to ingest a single capsule of the C16:1n7-palmitoleate composition or the placebo per day.
(§2) Subjects returned to the clinic at Visit 3 (Day 7) for repeat assessments of joint pain, range of motion, activity levels and health-related quality of life scores. After the performance-based physical functioning measures were evaluated, the subjects were provided with a 23-day supply of the C16:1n7-palmitoleate composition or placebo. Subjects returned to the clinic at Visit 4 (Day 30), which marked the end of the study, for reevaluation of the performance-based physical functioning measures.
The time of onset of discomfort or pain level refers to the time at which the minimum or maximum discomfort or pain level is reached. The time of onset of minimum discomfort or pain level refers to the time at which minimum discomfort or pain level is reached. The time of onset of maximum discomfort or pain level refers to the time at which maximum discomfort or pain level is reached.
As used herein, the time of offset of discomfort is the time at which a level of relief is reached after performing the Stepmill Protocol described herein. […]

[2] = test system: Human Subjects; test: 6-Minute Timed Walk; details: between treated and placebo groups, any time point
Experimental: Other performance-based physical functioning measures including the 6-Minute Timed Walk and Knee Range of Motion (ROM) were also performed by the subjects. In the 6-Minute Timed Walk, subjects walked up and down a hallway for 6 minutes and were instructed to walk as rapidly as possible within their comfort zone, and as rapidly as possible without causing themselves any pain.
as §1, with “At the end of the visit, subjects were provided with a 7-day supply of the C16:1n7-palmitoleate composition or placebo and daily dosing diaries. Subjects were instructed to ingest a single capsule of the C16:1n7-palmitoleate composition or the placebo per day.” left out
as §2, with “Subjects returned to the clinic at Visit 4 (Day 30), which marked the end of the study, for reevaluation of the performance-based physical functioning measures.” left out

[3] = test system: Human Subjects; test: Knee range of motion by goniometry (extension and flexion)
Source text: (§3) Goniometry was used to measure knee range of motion. To measure Knee Extension, subjects were instructed to extend the left or right knee to full extension without changing the position of their pelvis and lumbar spine. An inclinometer was placed along the subject's shin so as to document the range of motion in degrees. To measure Knee Flexion, subjects were asked to lie on their stomach with their shins off the end of the table, and were instructed to fully extend their knees. The subject was then asked to actively flex his/her knee to a full flexion position. The following scales and questionnaires: Stanford Exercise Behavior Scale—Stretching and Aerobics, Knee-related QOL subscale of KOOS Knee Survey, SF-12, and Knee Discomfort Improvement Scale were completed by the subjects at the initial screening.
as §1, §2
Goniometric measurements, which record the active and passive range of motion in joints like the knee, are often used in evaluating joint function.

[4] = test system: Human Subjects; test: Stanford Exercise Behavior Scale - Stretching and Aerobics
Source text: as §3
Experimental endpoints included Change in Time of Onset and Offset of Discomfort, Changes in 6-Minute Timed Walk, Change in Knee Range of Motion as measured by goniometry including Left and Right Knee Extension and Left and Right Knee Flexion. Stanford Exercise Scale—Stretching and Aerobics was used to measure the effect of the C16:1n7-palmitoleate composition on physical activity levels.

[5] = test system: Human Subjects; test: SF-12 survey (physical and mental component scores)
Source text: as §3
Quality of life (QOL) was assessed using Change in SF-12 and Knee-related QOL subscale of KOOS Knee Survey, and Knee Discomfort Improvement Scale. The SF-12 is a multipurpose short form survey with 12 questions, all selected from the SF-36 Health Survey. The questions were combined, scored, and weighted to create two scales that provide glimpses into the subject's mental and physical functioning and overall health-related-quality of life. Physical and Mental Health Component Summary Scores were computed using the scores of the twelve questions and a range from 0 to 100, where zero corresponds to the lowest level of health measured by the scales and 100 corresponds to the highest level of health.

[6] = test system: Human Subjects; test: Knee-related QOL subscale of KOOS Knee Survey
Source text: as §3
Knee injury and Osteoarthritis Outcome Score (KOOS) is an instrument to assess the patients' opinion about their knee and knee-associated problems. For this study, only the Knee Related QOL subscale was used.

[7] = test system: Human Subjects; test: Knee Discomfort Improvement Scale; details: group n=20
Source text: as §3
Knee Discomfort Improvement Scale refers to the response to the question “Is your overall knee discomfort improving?”, rated using a 3-point scale where zero is “Not at All”, 1 is “Moderately” and 2 is “Definitely”.

[8] = between treated and placebo groups, any time point
[9] = within-group, baseline to any time point

CCCCCC/C=C\CCCCCCCC(=O)O [C16:1n7-palmitoleate, palmitoleic acid]
average time to report maximum discomfort or pain level ([1]; after 30 days, placebo 5.43±2.53 minutes): 6.89 ± 2.59 min | time of onset of minimum discomfort or pain level ([1]; between treated and placebo groups): no statistically significant difference | time of offset of maximum discomfort [1, 8]: no statistically significant difference | time of offset of minimum discomfort [1, 8]: no statistically significant difference | changes in the time of onset of maximum discomfort from Day 0 to Day 30 ([1]; between treated and placebo groups, p=0.007): statistically significant difference | time to reach maximum discomfort or pain level ([1]; between treated and placebo groups, treated taking more time): significantly different | time of onset of minimum discomfort or pain level ([1]; within-group, 7 days vs Day 0, p=0.013, one capsule per day): statistically significant increase | time of onset of minimum discomfort or pain level ([1]; within-group, 30 days vs Day 0, p=0.005, one capsule per day): statistically significant increase | time of onset of maximum discomfort ([1]; within-group, 30 days vs Day 0, p=0.012): significantly increased | time of offset of maximum discomfort ([1]; within-group, 30 days vs Day 0, p=0.014): decrease | time of minimum offset of discomfort [1, 9]: no statistically significant changes | distance covered during the 6-minute timed walk [2]: no statistically significant difference | change in left knee flexion ([3]; after 7 days of supplementation): apparent | right knee extension [3, 8]: no statistically significant difference | right knee flexion [3, 8]: no statistically significant difference | left knee flexion ([3]; within-group, 30 days vs Day 0, p=0.015): significant increase | right knee flexion ([3]; within-group, 30 days vs Day 0, p=0.019): significant increase | left knee extension ([3]; within-group, 30 days vs Day 0, p=0.028): significant increase | right knee extension [3, 9]: no statistically significant changes | average minutes per week for aerobic exercise [4, 8]: no statistically significant differences | average minutes per week for stretching exercise [4, 8]: no statistically significant differences | time spent stretching ([4]; within-group, after 30 days of supplementation, p=0.066): non-statistically significant yet clinically significant increase | average minutes per week for aerobic exercise [4, 9]: no statistically significant changes | mental component score of the SF-12 survey [5, 8]: no statistically significant differences | physical component score of the SF-12 survey [5, 8]: no statistically significant differences | increase in the physical component score of the SF-12 survey ([5]; within-group, 30 days vs Day 0, p=0.031): 8.93% | mental component score of the SF-12 survey [5, 9]: no statistically significant changes | knee-related quality of life scores [6, 8]: no statistically significant differences | knee-related quality of life scores ([6]; within-group, Day 7 vs Day 0, p=0.002): increase | knee-related quality of life scores ([6]; within-group, Day 30 vs Day 0, p<0.001): increase | number of subjects that reported moderate improvements in knee discomfort ([7]; Day 0 (baseline)): 4 | number of subjects that reported definite improvements in knee discomfort ([7]; Day 7): 2 | number of subjects that reported moderate improvements in knee discomfort ([7]; Day 7): 10 | number of subjects that reported moderate improvements in knee discomfort ([7]; Day 30): 8 subjects | number of subjects that reported definite improvements in knee discomfort ([7]; Day 30, comparable to placebo): 8
